In ChEMBL document CHEMBL1201862, “PubChem BioAssay data set” (2004):
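48-hour exposure; five concentrations; linearly interpolated endpoints. GI50: concentration for 50% inhibition of growth.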 Calls of active or inactive are those of the source. No stated cut-off is given here; in the data, active = GI50 up to about 1.1 µM and inactive = higher.

Columns and labels:
Test in all cases: growth of human tumour cells (NCI), 48 h
786-0 = test system: 786-0
A498 = test system: A498
BT-549 = test system: BT-549
CAKI-1 = test system: CAKI-1
HCT-116 = test system: HCT-116
HOP-62 = test system: HOP-62
IGROV-1 = test system: IGROV-1
MDA-MB-435 = test system: MDA-MB-435
MOLT-4 = test system: MOLT-4
NCI-H226 = test system: NCI-H226
NCI-H460 = test system: NCI-H460
NCI-H522 = test system: NCI-H522
OVCAR-3 = test system: OVCAR-3
OVCAR-5 = test system: OVCAR-5
SN12C = test system: SN12C
SR = test system: SR
TK-10 = test system: TK-10
UACC-62 = test system: UACC-62
UO-31 = test system: UO-31
T47D = test system: T47D

| SMILES | GI50 (786-0) | GI50 (A498) | GI50 (BT-549) | GI50 (CAKI-1) | GI50 (HCT-116) | GI50 (HOP-62) | GI50 (IGROV-1) | GI50 (MDA-MB-435) | GI50 (MOLT-4) | GI50 (NCI-H226) | GI50 (NCI-H460) | GI50 (NCI-H522) | GI50 (OVCAR-3) | GI50 (OVCAR-5) | GI50 (SN12C) | GI50 (SR) | GI50 (TK-10) | GI50 (UACC-62) | GI50 (UO-31) | GI50 (T47D) |
| --- | --- | --- | --- | --- | --- | --- | --- | --- | --- | --- | --- | --- | --- | --- | --- | --- | --- | --- | --- | --- |
| Fc1nc(-c2c3ccccc3c3sc4ccccc4n23)nc(N2CCOCCOCCOCCOCC2)n1 | 32.8 µM (inactive) | 91.4 µM (inactive) | 87.1 µM (inactive) | > 100 µM (inactive) | 62.4 µM (inactive) | 23.7 µM (inactive) | > 100 µM (inactive) | > 100 µM (inactive) | 66.4 µM (inactive) | > 100 µM (inactive) | > 100 µM (inactive) | > 100 µM (inactive) | 63.1 µM (inactive) | > 100 µM (inactive) | > 100 µM (inactive) | 11.2 µM (inactive) | 54.2 µM (inactive) | > 100 µM (inactive) | > 100 µM (inactive) |  |
| COc1nc(SC)nc2c1C(O)n1c(nc3ccccc31)S2 (centres undefined) | 6.65 µM (inactive) | 16.3 µM (inactive) | 28.1 µM (inactive) | 41.3 µM (inactive) | 11.5 µM (inactive) | 12.1 µM (inactive) | 40.9 µM (inactive) | 20.1 µM (inactive) | 4.15 µM (inactive) |  | 15 µM (inactive) | 23 µM (inactive) | 32.7 µM (inactive) | 82 µM (inactive) | 24.3 µM (inactive) | 3.58 µM (inactive) | 23.7 µM (inactive) | 0.551 µM (active) | 3.08 µM (inactive) |  |
| CCOC(=O)c1c(-c2ccc(Cl)cc2)c(C#N)c(=S)n(C2OC(COC(C)=O)C(OC(C)=O)C(OC(C)=O)C2OC(C)=O)c1C (centres undefined) | > 100 µM (inactive) | 74 µM (inactive) |  | > 100 µM (inactive) | > 100 µM (inactive) | > 100 µM (inactive) | > 100 µM (inactive) | > 100 µM (inactive) | > 100 µM (inactive) | > 100 µM (inactive) | > 100 µM (inactive) | > 100 µM (inactive) | > 100 µM (inactive) | > 100 µM (inactive) | > 100 µM (inactive) | > 100 µM (inactive) | > 100 µM (inactive) | > 100 µM (inactive) | 0.565 µM (active) | > 100 µM (inactive) |
| Cn1c(=O)oc2cc(Br)ccc21 | > 100 µM (inactive) | > 100 µM (inactive) |  | > 100 µM (inactive) | > 100 µM (inactive) | > 100 µM (inactive) | > 100 µM (inactive) | > 100 µM (inactive) | > 100 µM (inactive) | > 100 µM (inactive) | > 100 µM (inactive) | > 100 µM (inactive) | > 100 µM (inactive) | > 100 µM (inactive) | > 100 µM (inactive) | > 100 µM (inactive) | > 100 µM (inactive) | > 100 µM (inactive) | > 100 µM (inactive) | > 100 µM (inactive) |
| CCOP(=O)(CN1CCNCCN(CP(=O)(OCC)OCC)CC1)OCC | > 100 µM (inactive) | > 100 µM (inactive) | > 100 µM (inactive) | > 100 µM (inactive) | > 100 µM (inactive) | > 100 µM (inactive) | > 100 µM (inactive) | > 100 µM (inactive) | > 100 µM (inactive) | > 100 µM (inactive) | > 100 µM (inactive) | > 100 µM (inactive) | > 100 µM (inactive) | > 100 µM (inactive) | > 100 µM (inactive) |  | > 100 µM (inactive) | > 100 µM (inactive) | > 100 µM (inactive) | > 100 µM (inactive) |
| CO/N=C(/C(=O)N(C(=O)/C(=N/OC)c1csc(NC(c2ccccc2)(c2ccccc2)c2ccccc2)n1)n1cnn(CC(=O)OC(C)(C)C)c1=O)c1csc(NC(c2ccccc2)(c2ccccc2)c2ccccc2)n1 | > 10 µM (inactive) | > 10 µM (inactive) | 2.16 µM (inactive) | > 10 µM (inactive) | > 10 µM (inactive) | > 10 µM (inactive) | > 10 µM (inactive) | > 10 µM (inactive) | > 10 µM (inactive) | > 10 µM (inactive) | > 10 µM (inactive) | > 10 µM (inactive) | > 10 µM (inactive) | > 10 µM (inactive) | > 10 µM (inactive) |  | > 10 µM (inactive) | > 10 µM (inactive) | 0.0139 µM (active) | > 10 µM (inactive) |
| Cc1ncc(CSC(=N)N)n1Cc1ccccc1 | 46 µM (inactive) | > 100 µM (inactive) | > 100 µM (inactive) | 84.1 µM (inactive) | 42.2 µM (inactive) | > 100 µM (inactive) | > 100 µM (inactive) | 30.7 µM (inactive) |  | > 100 µM (inactive) | 88.3 µM (inactive) | 24.7 µM (inactive) | 51.6 µM (inactive) | > 100 µM (inactive) | 43.5 µM (inactive) |  | 25.8 µM (inactive) | > 100 µM (inactive) | > 100 µM (inactive) | 26.1 µM (inactive) |
| CC(C)/C(Cl)=N\OC(=O)Nc1ccccc1F | 16.4 µM (inactive) | 14.9 µM (inactive) | 14.3 µM (inactive) | 21.3 µM (inactive) | 8.45 µM (inactive) | > 41.1 µM (inactive) | 17.7 µM (inactive) |  | 2.82 µM (inactive) | 15.1 µM (inactive) | 18.7 µM (inactive) |  | 17.7 µM (inactive) | 18.5 µM (inactive) | 10 µM (inactive) | 2.25 µM (inactive) | 14.5 µM (inactive) | 17.3 µM (inactive) | 16.1 µM (inactive) | 20.9 µM (inactive) |
| S=C(Nc1ccc(Cl)cc1)c1ccc(CN2CCCCC2)s1 | 4.25 µM (inactive) | 10.8 µM (inactive) | 8.26 µM (inactive) | 12.2 µM (inactive) | 1.8 µM (inactive) |  | 2.86 µM (inactive) | 4.03 µM (inactive) | 2.77 µM (inactive) |  | 4.62 µM (inactive) | 21.9 µM (inactive) | 31.1 µM (inactive) | 1.56 µM (inactive) | 11.9 µM (inactive) | 2.9 µM (inactive) |  | 5.22 µM (inactive) | 7.8 µM (inactive) |  |
| Nc1ccc2c(c1)Cc1ccccc1-2 | > 100 µM (inactive) | 49 µM (inactive) | 48.2 µM (inactive) | 88.3 µM (inactive) | 81.5 µM (inactive) | 60 µM (inactive) | 89.9 µM (inactive) | > 100 µM (inactive) | 34.7 µM (inactive) | > 100 µM (inactive) | 69.8 µM (inactive) |  | 45.4 µM (inactive) | > 100 µM (inactive) | > 100 µM (inactive) | 52.5 µM (inactive) | > 100 µM (inactive) | 59.4 µM (inactive) | 19.5 µM (inactive) |  |
| Nc1nc(N)c2nnn(C[C@H]3CC[C@@H](CO)C3)c2n1 | > 100 µM (inactive) | > 100 µM (inactive) | > 100 µM (inactive) | > 100 µM (inactive) | > 100 µM (inactive) | > 100 µM (inactive) | 54.7 µM (inactive) | > 100 µM (inactive) | > 100 µM (inactive) | > 100 µM (inactive) | > 100 µM (inactive) | > 100 µM (inactive) | > 100 µM (inactive) | > 100 µM (inactive) | 38.5 µM (inactive) | > 100 µM (inactive) | > 100 µM (inactive) | > 100 µM (inactive) | > 100 µM (inactive) |  |
| CC(C)C(/C=C/c1ccc(Cl)c(Cl)c1)=N\NC(=O)N/N=C(/C=C/c1ccc(Cl)c(Cl)c1)C(C)C | > 100 µM (inactive) | > 100 µM (inactive) | > 100 µM (inactive) | > 100 µM (inactive) |  | > 100 µM (inactive) | > 100 µM (inactive) | > 100 µM (inactive) | > 100 µM (inactive) | > 100 µM (inactive) | > 100 µM (inactive) | > 100 µM (inactive) | > 100 µM (inactive) | > 100 µM (inactive) | > 100 µM (inactive) | 86.1 µM (inactive) | > 100 µM (inactive) | > 100 µM (inactive) | > 100 µM (inactive) |  |
| CCOC(=O)c1c(C)n(C)c2c1cc(O)c1[nH]c3c(c12)CCCC3 | 15.6 µM (inactive) |  | 45.7 µM (inactive) | 28.4 µM (inactive) | 17.9 µM (inactive) | 38.3 µM (inactive) | 12.7 µM (inactive) | 13.4 µM (inactive) | 16.9 µM (inactive) |  | 20.5 µM (inactive) | 14 µM (inactive) | 5.62 µM (inactive) | 28.8 µM (inactive) | 24.2 µM (inactive) |  | 22.9 µM (inactive) | 18.8 µM (inactive) | 19.6 µM (inactive) | 18.2 µM (inactive) |
| NC(C(=O)O)C(N)C(=O)O (centres undefined) | > 100 µM (inactive) | > 100 µM (inactive) | > 100 µM (inactive) | > 100 µM (inactive) | > 100 µM (inactive) | > 100 µM (inactive) | > 100 µM (inactive) |  | > 100 µM (inactive) | > 100 µM (inactive) | > 100 µM (inactive) | > 100 µM (inactive) | > 100 µM (inactive) | > 100 µM (inactive) | > 100 µM (inactive) | > 100 µM (inactive) | > 100 µM (inactive) | > 100 µM (inactive) | > 100 µM (inactive) | > 100 µM (inactive) |
| CN(C)CCNC1=CC(=O)c2nc3ccccc3c3ccnc1c23 | 2.81 µM (inactive) |  | 7.26 µM (inactive) | 4.02 µM (inactive) | 2.88 µM (inactive) | 4.79 µM (inactive) | 2.47 µM (inactive) | 7.52 µM (inactive) | 2.48 µM (inactive) | 2.04 µM (inactive) | 2.39 µM (inactive) | 2.94 µM (inactive) | 2.78 µM (inactive) | 5.74 µM (inactive) | 6.49 µM (inactive) | 2.25 µM (inactive) | 8.2 µM (inactive) | 5.31 µM (inactive) | 3.89 µM (inactive) |  |
